{"source": "patent US20040048283A1", "about": "“Novel method for screening bacterial transcription modulators” (priority 2000, published 2004)", "key": {"[1]": {"biological_target": "assembly of the α, β and β′ subunits (Escherichia coli, UniProt P0A7Z4+P0A8T7+P0A8V2)", "assay": "specificity: assembly of RNA polymerase subunits", "format": "binding, E. coli"}, "E. coli TG1 cells": {"test_system": "E. coli TG1 cells", "assay": "inhibition of growth in microassay dish", "format": "cell-based", "details": "FIG. 4; optical density at 650 nm after 12 hours at 37° C.", "protocol": "FIG. 4 corresponds to the inhibition of the growth of E. coli TG1 cells by the abovementioned compound 5,988,031. This figure represents the optical density measured at 650 nm (y-axis) with reference to the concentration of the compound 5,988,031 in μg/ml (x-axis).\nThe E. coli TG1 cells, diluted according to the protocol described hereafter in the experimental part, are incubated with increasing concentrations of the compound 5,988,031. The growth of the bacteria is measured at 650 nm after incubation for 12 hours at 37° C. under stirring in a microassay dish.\nThe various compounds isolated are tested for their TG1 E. coli bacteria growth-inhibiting properties. Cells in stationary phase are diluted to {fraction (1/10,000)} in LB medium (tryptone 10 g; yeast extract 5 g; NaCl 5 g) and are transfected in a microassay dish (200 μl/well). The molecules are added to 10% DMSO, at a final concentration of 100 mg/ml. […] After incubation overnight at 37° C. under stirring, the optical density of each well at 650 nm is measured."}, "S aureus": {"test_system": "S aureus", "assay": "inhibition of growth in solid medium (inhibition diameter)", "format": "cell-based", "details": "for diameter of inhibition, S aureus: solid medium", "protocol": "(§1) A preculture of the strains E. coli K12, S. aureus and S. epidermis in Mueller Hinton Broth medium (Mueller and Hinton, 1941) is carried out at 37° C., until an optical density of 0.1 at 650 nm is obtained. 100 μl of the preculture is added to 10 ml of the medium: 0.1% agarose, 10 mM sodium phosphate pH 7.4; 0.3 mg/ml trypcase-soy; 100 mM NaCl.\n(§2) The mixture is poured into a […] Petri dish. Wells are made in the gelose and 5 μl of the solutions to be tested, containing the screened products, are placed in each well. The dishes are left at ambient temperature for 2 hours, then 10 ml of the medium (1% agarose; 10 mM sodium phosphate—pH 7.4-6% trypcase-soy) are poured into the Petri dish forming an overlay. After solidification, the dishes are incubated overnight at 37° C.\n(§3) The antibacterial activity is evaluated by measuring the diameter of the bacterial growth inhibition of the zone at the centre of which the product was placed."}, "E. coli K12": {"test_system": "E. coli K12", "assay": "inhibition of growth in solid medium (inhibition diameter)", "format": "cell-based", "details": "for diameter of inhibition, K12: solid medium", "protocol": "as §1, §2, §3"}, "[2]": {"biological_target": "T1, bond between the RNA polymerase and the protein NusA (Escherichia coli, UniProt P0A7Z4+P0A8T7+P0A8V2)", "T1 construct": "polyhistidine (C); made in house; host or cells: NusA: BL21 lambda DE3 E. coli cells (printed 'BL211amdaDE3'), pet21-type vector", "assay": "NusA-RNA polymerase bond test (ELISA-type complexation test)", "format": "binding, E. coli", "protocol": "More precisely, the different compounds tested (from the family of 5,988,031) are incubated in the presence of core enzyme in a microassay dish on which the protein NusA is adsorbed at a concentration equal to 20 μg/ml.\nThe gene coding for the protein NusA and comprising a C-terminal polyhistidine tag was cloned in a pet21-type vector. After transfection in BL211amdaDE3 cells, the cells are cultured in LB medium at 37° C. under vigorous stirring. The production of protein is induced by the addition of 1 mM IPTG. After 3 hours' culture, the cells are recovered by centrifugation and lysed according to (Burgess et al., Biochemistry, 1975 October 21; 14(21): 4634-8). After centrifugation, the supernatant is passed over an Ni NTA agarose column (Quiagen) according to the supplier's recommendations. The protein NusA is stored at −80° C. in (20 mM tris HCl pH 8; 5 M guanidine chloride; 10 mM β-mercaptoethanol; 50% glycerol) at a concentration of 100 μM.\nThe test is based on the adsorption of NusA on an ELISA plate for 12 hours at 4° C. (6 pmoles of protein diluted in 100 μl of PBS per well on Nunc-immuno plates, Maxisorp.). The dilutions of protein and the buffers were optimized in order to reduce the non-specific bond of the RNA polymerase. […] The sigma70-RNA polymerase-antibody complex is detected with a substrate of peroxidase, O-phenylenediamine, or another appropriate medium. […]"}, "[3]": {"biological_target": "T2, bond between the core enzyme of the RNA polymerase and the protein σ^70 (Escherichia coli, UniProt P0A7Z4+P0A8T7+P0A8V2)", "T2 construct": "made in house", "T2 sequence (P0A8T7 whole entry)": "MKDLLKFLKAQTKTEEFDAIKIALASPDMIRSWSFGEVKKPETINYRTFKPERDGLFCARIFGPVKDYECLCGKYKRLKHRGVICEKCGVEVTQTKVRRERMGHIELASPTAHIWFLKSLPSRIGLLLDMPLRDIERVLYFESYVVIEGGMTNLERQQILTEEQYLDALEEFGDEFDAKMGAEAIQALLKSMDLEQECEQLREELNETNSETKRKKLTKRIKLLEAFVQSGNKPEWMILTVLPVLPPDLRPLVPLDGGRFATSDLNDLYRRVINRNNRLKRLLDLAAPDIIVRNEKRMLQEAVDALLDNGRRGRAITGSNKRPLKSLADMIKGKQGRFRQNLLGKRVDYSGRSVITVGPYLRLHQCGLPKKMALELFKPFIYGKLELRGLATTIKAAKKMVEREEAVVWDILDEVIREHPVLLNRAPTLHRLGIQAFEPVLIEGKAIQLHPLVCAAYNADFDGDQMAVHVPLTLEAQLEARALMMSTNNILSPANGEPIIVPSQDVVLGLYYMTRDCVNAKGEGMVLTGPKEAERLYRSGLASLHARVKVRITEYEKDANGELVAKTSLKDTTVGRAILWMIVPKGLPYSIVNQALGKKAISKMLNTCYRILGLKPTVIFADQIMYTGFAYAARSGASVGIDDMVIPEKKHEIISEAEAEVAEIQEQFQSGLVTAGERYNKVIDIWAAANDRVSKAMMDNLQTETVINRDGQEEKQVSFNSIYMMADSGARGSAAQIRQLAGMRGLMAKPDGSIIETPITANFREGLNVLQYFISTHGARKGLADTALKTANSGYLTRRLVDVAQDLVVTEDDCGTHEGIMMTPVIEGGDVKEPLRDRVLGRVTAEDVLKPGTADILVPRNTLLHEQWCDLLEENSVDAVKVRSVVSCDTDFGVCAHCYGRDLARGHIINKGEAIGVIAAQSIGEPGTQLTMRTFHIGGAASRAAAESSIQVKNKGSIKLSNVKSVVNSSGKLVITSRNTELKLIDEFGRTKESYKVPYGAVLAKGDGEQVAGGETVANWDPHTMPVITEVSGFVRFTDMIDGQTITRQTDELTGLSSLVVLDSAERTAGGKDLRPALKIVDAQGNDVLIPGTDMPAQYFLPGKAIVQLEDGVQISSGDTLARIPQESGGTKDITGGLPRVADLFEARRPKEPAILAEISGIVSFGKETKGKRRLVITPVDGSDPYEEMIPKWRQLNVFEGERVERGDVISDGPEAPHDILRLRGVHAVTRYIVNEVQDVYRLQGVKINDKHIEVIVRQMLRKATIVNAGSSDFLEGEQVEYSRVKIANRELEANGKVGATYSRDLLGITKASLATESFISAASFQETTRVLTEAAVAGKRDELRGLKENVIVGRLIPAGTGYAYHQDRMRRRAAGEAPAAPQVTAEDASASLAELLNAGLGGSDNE", "T2 sequence (P0A8V2 whole entry)": "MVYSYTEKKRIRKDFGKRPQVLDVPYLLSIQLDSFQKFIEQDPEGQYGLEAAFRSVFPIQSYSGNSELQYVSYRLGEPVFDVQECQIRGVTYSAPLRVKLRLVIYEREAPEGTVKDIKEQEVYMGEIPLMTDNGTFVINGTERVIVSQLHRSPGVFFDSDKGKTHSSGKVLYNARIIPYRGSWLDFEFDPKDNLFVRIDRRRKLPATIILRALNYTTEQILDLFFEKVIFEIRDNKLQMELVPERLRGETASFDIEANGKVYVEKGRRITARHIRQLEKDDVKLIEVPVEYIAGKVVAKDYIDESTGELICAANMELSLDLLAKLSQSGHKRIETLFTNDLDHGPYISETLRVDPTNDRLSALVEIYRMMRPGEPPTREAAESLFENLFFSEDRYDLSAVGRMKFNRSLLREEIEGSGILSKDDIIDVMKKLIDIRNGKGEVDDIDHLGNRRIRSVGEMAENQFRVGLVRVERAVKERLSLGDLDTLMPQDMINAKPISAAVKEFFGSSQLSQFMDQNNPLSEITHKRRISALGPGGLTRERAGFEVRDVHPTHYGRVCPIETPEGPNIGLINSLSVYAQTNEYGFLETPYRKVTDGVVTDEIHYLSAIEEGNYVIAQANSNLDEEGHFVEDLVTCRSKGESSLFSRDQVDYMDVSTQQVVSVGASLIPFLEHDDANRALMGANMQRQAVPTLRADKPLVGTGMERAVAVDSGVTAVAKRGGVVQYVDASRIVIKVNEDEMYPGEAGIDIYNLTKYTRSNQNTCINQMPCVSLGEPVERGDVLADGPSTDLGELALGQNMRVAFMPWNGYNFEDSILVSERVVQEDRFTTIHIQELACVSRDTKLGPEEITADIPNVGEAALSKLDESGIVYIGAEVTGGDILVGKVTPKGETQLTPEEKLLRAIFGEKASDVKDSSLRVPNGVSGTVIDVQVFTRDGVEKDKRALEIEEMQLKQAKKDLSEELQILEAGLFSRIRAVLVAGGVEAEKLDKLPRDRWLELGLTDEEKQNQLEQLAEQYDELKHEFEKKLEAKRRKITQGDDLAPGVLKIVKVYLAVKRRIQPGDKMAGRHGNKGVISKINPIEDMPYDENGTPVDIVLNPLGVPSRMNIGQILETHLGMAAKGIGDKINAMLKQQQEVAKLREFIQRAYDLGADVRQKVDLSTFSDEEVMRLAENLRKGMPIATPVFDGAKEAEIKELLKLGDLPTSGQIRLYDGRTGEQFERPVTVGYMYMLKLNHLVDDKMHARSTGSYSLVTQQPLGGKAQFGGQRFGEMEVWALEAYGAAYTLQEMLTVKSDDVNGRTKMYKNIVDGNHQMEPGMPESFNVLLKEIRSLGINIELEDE", "T2 sequence (P0A7Z4 whole entry)": "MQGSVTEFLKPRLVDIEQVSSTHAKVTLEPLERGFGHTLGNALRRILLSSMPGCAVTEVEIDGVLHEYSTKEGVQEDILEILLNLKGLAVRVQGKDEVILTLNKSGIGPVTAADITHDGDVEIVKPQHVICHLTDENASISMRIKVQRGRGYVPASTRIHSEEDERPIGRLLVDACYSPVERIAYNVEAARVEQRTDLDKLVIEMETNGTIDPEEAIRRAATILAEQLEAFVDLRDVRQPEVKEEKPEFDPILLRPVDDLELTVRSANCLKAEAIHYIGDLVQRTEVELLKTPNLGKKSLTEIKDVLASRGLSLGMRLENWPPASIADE", "assay": "sigma70-RNA polymerase bond test (ELISA-type complexation test)", "format": "binding, E. coli", "protocol": "Thus, the different compounds tested are incubated in the presence of the core enzyme in a microassay dish on which the protein σ^70 is adsorbed, each well of the plate containing 1 μM of σ^70 during the adsorption phase.\nThe sigma70 proteins and the RNA polymerase of E. coli are expressed and purified under standard conditions (Burgess et al., Biochemistry, 1975, October 21; 14(21): 4634-8; Burgess R., Methods Enzymol 1996; 273: 145-9). The sigma70 protein is stored at −80° C. in (20 mM tris HCl pH 8; 5 M guanidine chloride; 10 mM β-mercaptoethanol; 50% glycerol) at a concentration of 100 μM. The core RNA polymerase is stored at −80° C. in (20 mM tris HCl pH 8, 100 mM KCl, 10 mM β-mercaptoethanol, 50% glycerol) at a concentration of 1 μM. The antipolymerase monoclonal antibody was obtained and purified by standard techniques (Short Protocols in Molecular Biology 2nd edition, John Wiley & Its) then chemically coupled to activated peroxidase (Boehringer Mannheim Biochemica ref. 1428861) according to the supplier's recommendations.\nThe test is based on the adsorption of sigma70 on an ELISA plate for 12 hours at 4° C. (6 pmoles of protein diluted in 100 μl of PBS per well, on Nunc-immuno plates, Maxisorp.). The protein dilutions and the buffers were optimized in order to reduce the non-specific bond of the RNA polymerase. After washing the plate with PBS 0.1% tween20, the plate is saturated with 200 μl of PBS 0.1% tween20, 1% BSA then incubated for 1 hour at ambient temperature with the RNA polymerase of E. coli (0.25 pmole of core RNA polymerase in 100 μl of PBS 0.1% tween 20, 1% BSA, 10 mM MgCl2) in the presence or in the absence of an optional inhibitor. […] The sigma70-RNA polymerase antibody complex is detected with a substrate of peroxidase, O-phenylenediamine, or another appropriate medium. […]\nAfter three washings with 0.1% PBS-T (v/v), the peroxidase substrate is added (OPD, Biorad). The reaction takes place for 2 to 3 minutes in darkness then an absorbance measurement is carried out at 490 nm, after stopping the reaction with 50 μl of 4N H2SO4. […]"}, "[4]": {"biological_target": "bond between an antibody, for example 11D11, and the RNA polymerase (Escherichia coli, UniProt P0A7Z4+P0A8T7+P0A8V2)", "assay": "specificity: antibody-RNA polymerase bond", "format": "binding, E. coli"}, "M. Luteus": {"test_system": "M. Luteus", "assay": "antibiotic activity on other strains tested", "format": "cell-based", "details": "concentration not given"}, "S epidermidis": {"test_system": "S epidermidis", "assay": "inhibition of growth in solid medium (inhibition diameter)", "format": "cell-based", "protocol": "as §1, §2, §3"}, "[5]": {"details": "other strains tested, concentration not given"}}, "note": "Entries after “also recorded” stand apart in the source; their conditions may differ."}
{"smiles": "Cc1ccc(C)n1-c1ccc(OCC(=O)O)cc1", "note": "[compound 5,988,031]", "values": [{"measurement": "inhibition of the assembly of the α, β and β′ subunits (in words)", "setting": "[1]", "result": "not"}, {"measurement": "inhibition of the growth of E. coli TG1 cells (in words)", "setting": "E. coli TG1 cells", "result": "inhibits"}, {"measurement": "activity on S. aureus (in words)", "setting": "S aureus; [5]", "result": "not active"}, {"measurement": "activity on E. coli K12 (in words)", "setting": "E. coli K12; [5]", "result": "not active"}, {"measurement": "inhibition of the bond between NusA and the RNA polymerase (in words)", "setting": "[2]", "result": "inhibits"}, {"measurement": "inhibition of the bond between σ^70 and the RNA polymerase (in words)", "setting": "[3]", "result": "most active; also recorded: inhibits"}, {"measurement": "IC50", "setting": "[3]; FIG. 1, σ^70 adsorbed on plate, core enzyme, antibody 11D11-peroxidase, read-out: concentration giving 50% inhibition of the bond between σ^70 and the RNA polymerase (converted)", "result": "~20.4", "unit": "µM"}, {"measurement": "inhibition of the bond between an antibody (11D11) and the RNA polymerase (in words)", "setting": "[4]", "result": "not"}, {"measurement": "activity on M. Luteus (in words)", "setting": "M. Luteus", "result": "not active"}]}
{"smiles": "O=C(/C=C/c1ccc(-c2cccc([N+](=O)[O-])c2)o1)c1cc2ccccc2o1", "note": "[5,768,818]", "values": [{"measurement": "diameter of inhibition, S aureus", "setting": "S aureus; 500 μg/ml", "result": "negative"}, {"measurement": "diameter of inhibition, S epidermidis", "setting": "S epidermidis; 500 μg/ml", "result": "negative"}, {"measurement": "diameter of inhibition, K12", "setting": "E. coli K12; 500 μg/ml", "result": "negative"}]}
{"smiles": "CN[C@H](CC(C)C)C(=O)N[C@H]1C(=O)N[C@@H](CC(N)=O)C(=O)N[C@H]2C(=O)N[C@H]3C(=O)N[C@H](C(=O)N[C@H](C(=O)O)c4cc(O)cc(O)c4-c4cc3ccc4O)[C@H](O)c3ccc(c(Cl)c3)Oc3cc2cc(c3O[C@@H]2O[C@H](CO)[C@@H](O)[C@H](O)[C@H]2O[C@H]2C[C@](C)(N)[C@H](O)[C@H](C)O2)Oc2ccc(cc2Cl)[C@H]1O", "note": "[vancomycin, reference compound]", "values": [{"measurement": "diameter of inhibition, S aureus", "setting": "S aureus; 50 μg/ml", "result": 5, "unit": "mm"}, {"measurement": "diameter of inhibition, S epidermidis", "setting": "S epidermidis; 50 μg/ml", "result": 5, "unit": "mm"}, {"measurement": "diameter of inhibition, K12", "setting": "E. coli K12; 50 μg/ml", "result": "negative"}]}
{"smiles": "COc1ccc(-c2ccc(/C=C/C(=O)c3cc4ccccc4o3)o2)cc1", "note": "[compound 5,858,445]", "values": [{"measurement": "diameter of inhibition, S aureus", "setting": "S aureus; 500 μg/ml", "result": 4.2, "unit": "mm"}, {"measurement": "diameter of inhibition, S epidermidis", "setting": "S epidermidis; 500 μg/ml", "result": 4.2, "unit": "mm"}, {"measurement": "diameter of inhibition, K12", "setting": "E. coli K12; 500 μg/ml", "result": "negative"}, {"measurement": "inhibition of the bond between σ^70 and the RNA polymerase (in words)", "setting": "[3]", "result": "most active"}]}
{"smiles": "O=C(/C=C/c1ccc(-c2ccc([N+](=O)[O-])cc2)o1)c1cc2ccccc2o1", "note": "[5,761,890]", "values": [{"measurement": "diameter of inhibition, S aureus", "setting": "S aureus; 500 μg/ml", "result": "negative"}, {"measurement": "diameter of inhibition, S epidermidis", "setting": "S epidermidis; 500 μg/ml", "result": "negative"}, {"measurement": "diameter of inhibition, K12", "setting": "E. coli K12; 500 μg/ml", "result": "negative"}]}
